Columns and labels:
myeloperoxidase [1] = target: T1, myeloperoxidase (Homo sapiens (Human), UniProt P05164); experiment: MPO Peroxidation Assay (Amplex Red Assay); assay type: biochemical; settings: potency range class
Method: MPO Peroxidation Assay (Amplex Red Assay)
MPO peroxidation activity was measured in 100 mM KPi (pH 7.4) by utilizing the non-fluorescent reagent Amplex Red (Invitrogen Cat. #A12222) which can be oxidized to the highly fluorescent resorufin. Amplex Red is oxidized by the peroxidase action of MPO to resorufin. Reactions were carried out in 50 μL total volume by adding a 25 μL mixture of 200 pM myeloperoxidase and 40 nM H2O2(Sigma #349887) to 100 nL inhibitor in 100% DMSO in a 384 well Perkin Elmer Optiplate. Enzyme and compound were preincubated for ten minutes at rt.
After the ten minute preincubation, 25 μL of an Amplex Red mixture containing 200 μM Amplex Red and 10 mM H2O2 was added to the plate. Kinetic determinations were carried out immediately on a Perkin Elmer Envision (15 minute kinetic read, Ex: 535 nm, Em: 590 nm).
IC50 values were calculated by determining the slope of the linear portion of the kinetic trace (180-540 secs), and using that calculated slope to determine % inhibition occurring at each concentration of inhibitor using the following equation:
(§1) [formula] where A=minimal Y value (activity level of inhibited sample), B=maximal Y value (activity level of uninhibited sample), C=Log IC50, D=Hill Slope, x=concentration of inhibitor. MPO Chlorination Assay (APF Assay)

myeloperoxidase [2] = target: T1, myeloperoxidase; experiment: MPO Chlorination Assay (APF Assay); assay type: biochemical; settings: potency range class
Method: as §1
MPO chlorination activity was measured in 100 mM KPi (pH 7.4) by utilizing the non-fluorescent reagent Aminophenyl fluorescein (APF, Invitrogen Cat. #A36003). APF is cleaved by (—OCl) to yield the fluorescent compound fluorescein. Reactions were carried out in 50 μL total volume by adding a 25 μL mixture of 200 pM myeloperoxidase and 120 mM NaCl to 100 nL inhibitor in 100% DMSO in a 384 well, non-binding surface clear bottom plate (Corning #3655). Enzyme, inhibitor, and chloride were preincubated for ten minutes at rt.
After the ten minute preincubation, 25 μL of an APF mixture containing […], 120 mM NaCl and 10 μM H2O2 was added to the plate using the internal dispensing system of a Hammatsu FDSS 6000. Kinetic determinations were carried out immediately on the FDSS 6000 (3 minute kinetic read, 1 read every second, ex: 485 nm, em: 535 nm). IC50 values for inhibitors were calculated by taking the slope of the linear portion of the kinetic measurement (20 seconds to ˜80-120 secs). […]
[formula] where A=minimal Y value (activity level of inhibited sample), B=maximal Y value (activity level of uninhibited sample), C=Log IC50, D=Hill Slope, x=concentration of inhibitor.

T1 sequence (P05164 49-745): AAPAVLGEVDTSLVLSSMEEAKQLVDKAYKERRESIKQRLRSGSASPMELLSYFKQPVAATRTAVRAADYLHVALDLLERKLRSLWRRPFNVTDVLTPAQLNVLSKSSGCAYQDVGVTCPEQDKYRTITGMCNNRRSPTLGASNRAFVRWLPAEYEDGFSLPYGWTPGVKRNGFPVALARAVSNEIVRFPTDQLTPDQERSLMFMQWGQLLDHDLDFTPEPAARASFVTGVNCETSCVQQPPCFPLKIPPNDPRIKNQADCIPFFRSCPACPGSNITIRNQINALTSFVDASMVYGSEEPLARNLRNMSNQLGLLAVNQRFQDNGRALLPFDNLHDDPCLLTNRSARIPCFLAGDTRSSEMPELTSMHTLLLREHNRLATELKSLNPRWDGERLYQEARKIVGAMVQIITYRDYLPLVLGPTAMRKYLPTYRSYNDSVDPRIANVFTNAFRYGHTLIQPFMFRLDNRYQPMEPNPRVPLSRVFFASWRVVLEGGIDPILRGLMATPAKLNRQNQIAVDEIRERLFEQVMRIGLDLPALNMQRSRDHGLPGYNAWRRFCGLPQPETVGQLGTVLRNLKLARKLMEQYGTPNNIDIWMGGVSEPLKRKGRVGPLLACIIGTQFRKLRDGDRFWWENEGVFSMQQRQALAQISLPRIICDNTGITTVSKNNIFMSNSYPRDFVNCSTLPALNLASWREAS

IC50 (myeloperoxidase [1]) | IC50 (myeloperoxidase [2]) | SMILES
101 to 999 nM | – | Nc1cc(C(CCCc2ccccc2)c2cnn(Cc3cccnc3)c2)c2nn[nH]c2n1 (centres unmarked) [Example 12, 7-{4-Phenyl-1-[1-(pyridin-3-ylmethyl)-1H-pyrazol-4-yl]butyl}-3H-[1,2,3]triazolo[4,5-b]pyridin-5-amine]
101 to 999 nM | 1 to 100 nM | Nc1cc(C(CCCC2NCCc3ccccc32)c2cnn(Cc3ccccc3)c2)c2nn[nH]c2n1 (centres unmarked) [Example 14, 7-[1-(1-Benzyl-1H-pyrazol-4-yl)-4-(1,2,3,4-tetrahydroisoquinolin-1-yl)butyl]-3H-[1,2,3]triazolo[4,5-b]pyridin-5-amine]
101 to 999 nM | 1000 to 10000 nM | Cn1cc(C(CCNCc2ccccc2)c2cc(N)nc3[nH]nnc23)cn1 (centres unmarked) [Example 15, 7-[3-(Benzylamino)-1-(1-methyl-1H-pyrazol-4-yl)propyl]-3H-[1,2,3]triazolo[4,5-b]pyridin-5-amine]
101 to 999 nM | 1 to 100 nM | Nc1cc(C(CCNC2CCC(c3ccccc3)CC2)c2cnn(Cc3ccccc3)c2)c2nn[nH]c2n1 (centres unmarked) [Example 16, 7-[1-(1-Benzyl-1H-pyrazol-4-yl)-3-[(4-phenylcyclohexyl)amino]propyl]-3H-[1,2,3]triazolo[4,5-b]pyridin-5-amine]
101 to 999 nM | 1 to 100 nM | Nc1cc(C(CCNC2CCc3ccccc32)c2cnn(Cc3ccccc3)c2)c2nn[nH]c2n1 (centres unmarked) [Example 17, 7-[1-(1-Benzyl-1H-pyrazol-4-yl)-3-[(2,3-dihydro-1H-inden-1-yl)amino]propyl]-3H-[1,2,3]triazolo[4,5-b]pyridin-5-amine]
1 to 100 nM | 1 to 100 nM | Nc1cc(C(CCN[C@H]2CC[C@H](c3ccccc3)CC2)c2cnn(Cc3ccccc3)c2)c2nn[nH]c2n1 (some centres unmarked) [Example 18, 7-[1-(1-Benzyl-1H-pyrazol-4-yl)-3-{[(1r,4r)-4-phenylcyclohexyl]-amino}propyl]-3H-[1,2,3]triazolo 4,5-b pyridin-5-amine]
101 to 999 nM | 1 to 100 nM | Nc1cc(C(CCN[C@H]2CC[C@H](c3ccccc3)CC2)c2cnn(C3CCC3)c2)c2nn[nH]c2n1 (some centres unmarked) [Example 20, 7-[1-(1-Cyclobutyl-1H-pyrazol-4-yl)-3-{[(1r,4r)-4-phenylcyclohexyl]amino}propyl]-3H-[1,2,3]triazolo[4,5-b]pyridin-5-amine]
101 to 999 nM | 101 to 999 nM | Nc1cc(C(CCN[C@H]2CC[C@H](c3ccccc3)CC2)c2cnn(CC3CCC3)c2)c2nn[nH]c2n1 (some centres unmarked) [Example 21, 7-{1-[1-(Cyclobutylmethyl)-1H-pyrazol-4-yl]-3-{[(1 r,4r)-4-phenylcyclohexyl]amino}propyl}-3H-[1,2,3]triazolo[4,5-b]pyridin-5-amine]
1000 to 10000 nM | 101 to 999 nM | Nc1cc(C(CCN[C@H]2CC[C@H](c3ccccc3)CC2)c2cn[nH]c2)c2nn[nH]c2n1 (stereo partly drawn) [Example 22, 7-[1-(1H-Pyrazol-4-yl)-3-{[trans-4-phenylcyclohexyl]amino}propyl]-3H-[1,2,3]triazolo[4,5-b]pyridin-5-amine]
1000 to 10000 nM | 1 to 100 nM | Nc1cc(C(CCN[C@H]2CC[C@H](c3ccccc3)CC2)c2cnn(C3CCCC3)c2)c2nn[nH]c2n1 (stereo partly drawn) [Example 23, 7-[1-(1-Cyclopentyl-1H-pyrazol-4-yl)-3-{[trans-4-phenylcyclohexyl]amino}propyl]-3H-[1,2,3]triazolo[4,5-b]pyridin-5-amine]

The remaining lines, values behind:

SMILES | IC50 (myeloperoxidase [1]) | IC50 (myeloperoxidase [2])
Nc1cc(C(CCN[C@H]2CC[C@H](c3ccccc3)CC2)c2cnn(C3CCC(F)(F)C3)c2)c2nn[nH]c2n1 (relative stereo) [Example 27, 7-{1-[1-(3,3-Difluorocyclopentyl)-1H-pyrazol-4-yl]-3-{[trans-4-phenylcyclohexyl]amino}propyl}-3H-[1,2,3]triazolo[4,5-b]pyridin-5-amine] | 101 to 999 nM | 1 to 100 nM
Nc1cc(C(CCCc2ccccc2)c2cnn(Cc3ccc4c(c3)CCNC4)c2)c2nn[nH]c2n1 (centres unmarked) [Example 1, 7-(4-phenyl-1-(1-((1,2,3,4-tetrahydroisoquinolin-6-yl)methyl)-1H-pyrazol-4-yl)butyl)-3H-[1,2,3]triazolo[4,5-b]pyridin-5-amine] | 1000 to 10000 nM | 1 to 100 nM
CCCC(c1cnn(Cc2ccc3c(c2)CCNC3)c1)c1cc(N)nc2[nH]nnc12 (centres unmarked) [Example 2, 7-{1-[1-(1,2,3,4-tetrahydroisoquinolin-6-ylmethyl)-1H-pyrazol-4-yl]butyl}-3H-[1,2,3]triazolo[4,5-b]pyridin-5-amine] | 101 to 999 nM | 101 to 999 nM
CC(c1cnn(Cc2ccc3c(c2)CCNC3)c1)c1cc(N)nc2[nH]nnc12 (centres unmarked) [Example 3, 7-{1-[1-(1,2,3,4-tetrahydroisoquinolin-6-ylmethyl)-1H-pyrazol-4-yl]ethyl}-3H-[1,2,3]triazolo[4,5-b]pyridin-5-amine] | 101 to 999 nM | 101 to 999 nM
Nc1cc(C(CCOCc2ccccc2)c2cnn(Cc3ccc4c(c3)CCNC4)c2)c2nn[nH]c2n1 (centres unmarked) [Example 4, 7-(3-(benzyloxy)-1-(1-((1,2,3,4-tetrahydroisoquinolin-6-yl)methyl)-1H-pyrazol-4-yl)propyl)-3H-[1,2,3]triazolo[4,5-b]pyridin-5-amine] | 1000 to 10000 nM | 101 to 999 nM
Nc1cc(C(CCC(c2ccccc2)c2ccccc2)c2cnn(Cc3ccc4c(c3)CCNC4)c2)c2nn[nH]c2n1 (centres unmarked) [Example 5, 7-{4,4-diphenyl-1-[1-(1,2,3,4-tetrahydroisoquinolin-6-ylmethyl)-1H-pyrazol-4-yl]butyl}-3H-[1,2,3]triazolo[4,5-b]pyridin-5-amine] | 1000 to 10000 nM | 1 to 100 nM
Nc1cc(C(CCCC2CCCCC2)c2cnn(Cc3ccc4c(c3)CCNC4)c2)c2nn[nH]c2n1 (centres unmarked) [Example 6, 7-{4-cyclohexyl-1-[1-(1,2,3,4-tetrahydroisoquinolin-6-ylmethyl)-1H-pyrazol-4-yl]butyl}-3H-[1,2,3]triazolo[4,5-b]pyridin-5-amine] | 101 to 999 nM | 1 to 100 nM
Nc1cc(C(CCCc2ccc3ccccc3c2)c2cnn(Cc3ccc4c(c3)CCNC4)c2)c2nn[nH]c2n1 (centres unmarked) [Example 7, 7-[4-(naphthalen-2-yl)-1-[1-(1,2,3,4-tetrahydroisoquinolin-6-ylmethyl)-1H-pyrazol-4-yl]butyl]-3H-[1,2,3]triazolo[4,5-b]pyridin-5-amine] | 101 to 999 nM | 1 to 100 nM
Nc1cc(C(CCCC2CCc3ccccc32)c2cnn(Cc3ccc4c(c3)CCNC4)c2)c2nn[nH]c2n1 (centres unmarked) [Example 8, 7-[4-(2,3-dihydro-1H-inden-1-yl)-1-[1-(1,2,3,4-tetrahydroisoquinolin-6-ylmethyl)-1H-pyrazol-4-yl]butyl]-3H-[1,2,3]triazolo[4,5-b]pyridin-5-amine] | 1000 to 10000 nM | 101 to 999 nM
Nc1cc(C(CCCc2cccc3ccccc23)c2cnn(Cc3ccc4c(c3)CCNC4)c2)c2nn[nH]c2n1 (centres unmarked) [Example 9, 7-[4-(Naphthalen-1-yl)-1-[1-(1,2,3,4-tetrahydroisoquinolin-6-ylmethyl)-1H-pyrazol-4-yl]butyl]-3H-[1,2,3]triazolo[4,5-b]pyridin-5-amine] | 1000 to 10000 nM | 1 to 100 nM
Nc1cc(C(CCC2CCOCC2)c2cnn(Cc3ccc4c(c3)CCNC4)c2)c2nn[nH]c2n1 (centres unmarked) [Example 10, 7-[3-(Oxan-4-yl)-1-[1-(1,2,3,4-tetrahydroisoquinolin-6-ylmethyl)-1H-pyrazol-4-yl]propyl]-3H-[1,2,3]triazolo[4,5-b]pyridin-5-amine] | 101 to 999 nM | 1000 to 10000 nM
Nc1cc(C(CCOc2ccccc2)c2cnn(Cc3ccc4c(c3)CCNC4)c2)c2nn[nH]c2n1 (centres unmarked) [Example 11, 7-{3-Phenoxy-1-[1-(1,2,3,4-tetrahydroisoquinolin-6-ylmethyl)-1H-pyrazol-4-yl]propyl}-3H-[1,2,3]triazolo[4,5-b]pyridin-5-amine] | 101 to 999 nM | 101 to 999 nM
Nc1cc(C(CCCc2ccccc2)c2cnn(Cc3cccc(C4CCNCC4)c3)c2)c2nn[nH]c2n1 (centres unmarked) [Example 13, 7-[4-Phenyl-1-(1-{[3-(piperidin-4-yl)phenyl]methyl}-1H-pyrazol-4-yl)butyl]-3H-[1,2,3]triazolo[4,5-b]pyridin-5-amine] | 101 to 999 nM | 1 to 100 nM
Nc1cc(C(CCN[C@H]2CC[C@H](c3ccccc3)CC2)c2cnn(Cc3ccc(Cl)cc3)c2)c2nn[nH]c2n1 (stereo partly drawn) [Example 19, 7-(1-{1-[(4-Chlorophenyl)methyl]-1H-pyrazol-4-yl}-3-{[trans-4-phenylcyclohexyl]amino}propyl)-3H-[1,2,3]triazolo[4,5-b]pyridin-5-amine] | 101 to 999 nM | 1 to 100 nM
